Experimental findings from patent publication US5808065A, “Pyridazinone derivatives and processes for preparing the same” (Tanabe Seiyaku Co., Ltd., priority 1995, dated 1998) are described below.

The nature of series [1]: Side Effect to Circulatory System (normal awakened rats, tail-cuff method). The series is classed as in vivo. Particulars: 30 mg/kg/10 ml orally, before and 2 hours after administration. Here is the method:
One experimental group consisted of 4 rats. Each compound to be tested was suspended in purified water by using a small amount of Tween 80 (trade name, produced by Nacalai Tesque Co.), and a dose of 30 mg/kg/10 ml was administered orally to normal awakened rats. Systolic blood pressures and heart rates before administration and 2 hours after administration were examined. The systolic blood pressures and the heart rates were measured by the tail-cuff method (KN-210, trade name, produced by Natsume Seisakusho) under conditions of pretreatment at 40° C. for 15 minutes.
According to the following equations, the respective changing rates were calculated. [formula]

The nature of series [2]: Antinephritic Action (protein excretion inhibition in nephritis induced with nephrotoxic serum (NTS)). The series is classed as in vivo, male WKY rats. The following applies: 30 mg/kg/10 ml orally twice a day for 8 days; urine collected for 24 hours on the seventh day; 6 rats per group. Here is the method:
Rabbits were immunized several times with an adjuvant and a renal glomerular basement membrane fraction obtained from WKY rats, and then whole blood was collected from the rabbits to obtain a nephrotoxic serum (NTS). This NTS was diluted by 50 times with physiological saline, and to male WKY rats of 8 weeks old, 2.5 ml of the diluted NTS per 1 kg of body weight was injected intravenously to induce nephritis. To a normal group, the same amount of physiological saline was administered intravenously. One experimental group consisted of 6 rats. Each compound to be tested was suspended in purified water by using a small amount of Tween 80 (trade name, produced by Nacalai Tesque Co.), and a dose of 30 mg/kg/10 ml was orally administered twice a day for continuous 8 days. To a normal group and a control group, the same amount of purified water was administered orally. On the seventh day, the rats were placed in a metabolic cage, and urine was collected for 24 hours. By measuring the concentrations of protein in urine by the sulfosalicylic acid method, the amounts of excreted protein (mg/day) were determined, and protein excretion-inhibiting rates were calculated by the following equation. [formula]

The subject of the next series is mice. Nature of the series: Toxicity (death of mice observed for 3 days). The series is classed as in vivo. The source says:
The desired compound (I) of the present invention has low toxicity.

Turning to `CC1CC(=O)NN=C1c1ccc(CCNC(=O)c2cccnc2)cc1` (stereo not drawn) [Known compound, 5-methyl-6-(4-[2-(pyridin-3-ylcarbonylamino)ethyl]phenyl)-4,5-dihydropyridazin-3 (2H)-one, reference compound], in series [1], the Heart rate-changing rate was 18 Δ% and the “Systolic blood pressure-changing rate” value is -7 Δ%.
With `Cc1ncccc1C(=O)NCCCCc1ccc(-c2ccc(=O)[nH]n2)cc1` [Example 32], in series [1], the Heart rate-changing rate is recorded as 5 Δ% and the “Systolic blood pressure-changing rate” value was -2 Δ%. For the same compound, the “Inhibition rate (protein excretion-inhibiting rate)” value (“Inhibition rate” below) in series [2] is 64.3%.
As to `O=C(NCCCc1ccc(-c2ccc(=O)[nH]n2)cc1)c1cccnc1` [Example 31], in series [1], the Heart rate-changing rate was 7 Δ% and the “Systolic blood pressure-changing rate” value is 0 Δ%.
`O=C(NCCCOc1ccc(-c2ccc(=O)[nH]n2)cc1)c1cccnc1` [Example 36, 6-[4-(3-(pyridin-3-ylcarbonylamino)propoxy)phenyl]pyridazin-3(2H)-one]: in series [1], the Heart rate-changing rate is given as 1 Δ% and the “Systolic blood pressure-changing rate” value is given as 0 Δ%. The “Inhibition rate” value in series [2] is 89.0%.
`Cl.O=C(NCCCCc1ccc(-c2ccc(=O)[nH]n2)cc1)c1cccnc1` [Example 69, 6-[4-(4-(pyridin-3-ylcarbonylamino)butyl)phenyl]pyridazin-3(2H)-one hydrochloride]: the death entry in the series with mice (mouse, in vivo, ip, 300 mg/kg) is recorded as “no case of death was observed”; with mice (orally, 1,000 mg/kg, observed for 3 days), “no case of death was observed”. Moreover, the “Inhibition rate” value in series [2] stood at 82.2%.
Regarding `Nc1ncccc1C(=O)NCCCCc1ccc(-c2ccc(=O)[nH]n2)cc1` [Example 70], the “Inhibition rate” value in series [2] is on record as 74.1%.
On to `O=C(NCCCCc1ccc(-c2ccc(=O)[nH]n2)cc1)c1cccnc1` [Example 30, 6-[4-(4-(pyridin-3-ylcarbonylamino)butyl)phenyl]pyridazin-3(2H)-one], for which, in series [1], the Heart rate-changing rate is 3 Δ% and the “Systolic blood pressure-changing rate” value is recorded as -2 Δ%. The “Inhibition rate” value in series [2] is 82.5%.
Take `C=CS(=O)(=O)NCCCc1ccc(-c2ccc(=O)[nH]n2)cc1` [Example 52-(4), 6-[4-(3-vinylsulfonylaminopropyl)phenyl]-pyridazin-3(2H)-one]: the “Inhibition rate” value in series [2] amounted to 74.6%.
Consider `Nc1ncccc1C(=O)NCCCCc1ccc(-c2ccc(=O)[nH]n2)cc1` [Example 33], for which, in series [1], the Heart rate-changing rate is 2 Δ% and the “Systolic blood pressure-changing rate” value is recorded as 1 Δ%. Further, the “Inhibition rate” value in series [2] is reported as 85.7%.
